Source: paper PMC10403513, “Tasmanian devil cathelicidins exhibit anticancer activity against Devil Facial Tumour Disease (DFTD) cells” (Scientific Reports, 2023)
No end group written: not given here.

Columns and labels:
DFT1 1426 cells [1] = test: RNAseq differential gene expression in peptide-treated DFT1 1426 cells; type: cell-based, Tasmanian devil (Sarcophilus harrisii); details: 500 μg/mL, 10 h, n = 3, vs vehicle control; for Fold change, gene IL6: cytokine; for Fold change, gene MYD88: immune signaling; for percentage of DE genes: of 15,548 genes; for Fold change, gene RUNX1: transcription factor
Experimental: RNAseq was used to characterize the mechanisms underlying the anticancer activity of the peptides. Confluent DFT1 1426 cells (passage number 25) were re-suspended at a concentration of 5 × 10^5 cells/ml and 1 mL seeded into each well of a sterile flat-bottom polystyrene 12-well plate (Corning). Following incubation for 24 h at 35 °C 5% CO2, media was aspirated from the cells and replaced with 500 μL of RPMI 1640 with 2 mM L-glutamine, 10% FBS and 10% AmnioMax II. 500 μL of each 1 mg/mL peptide solution (Saha-CATH1 to 7) was then added to the plate in triplicate, to give a final peptide concentration of 500 μg/mL. […] A vehicle control was also added to the plate in triplicate.
The plate was then incubated for a further 10 h at 35 °C in 5% CO2. This incubation period was selected as the cytotoxicity assay indicated it was sublethal for most of the peptides and would maintain sufficient cell viability to extract intact RNA. Media was then aspirated from the cells, which were washed twice with Dulbecco’s phosphate buffered saline (DPBS) (Sigma-Aldrich).
Total RNA was extracted from each replicate of the peptide-treated and vehicle control cells (n = 3) using the RNeasy mini kit (Qiagen) with cell lysis directly in each well of the 12 well plate. Total RNA was quality assessed using the RNA nano 6000 kit on the Agilent Bioanalyzer with all samples displaying a RIN score between 5 and 9. In total, 24 RNA samples corresponding to three treatments per peptide (Saha-CATH1 to 7) and a vehicle control were submitted to Ramaciotti Centre for Genomics (The University of New South Wales) for sequencing. Illumina TruSeq mRNA libraries were prepared for all samples, which were sequenced as 2 × 150 bp paired-end reads across an SP flowcell on the NovaSeq6000.
Raw reads were quality assessed using FastQC v0.11.8[47], then quality and length trimmed using Trimmomatic v0.39[48] using default parameters. Trimmed reads for each treatment (n = 3) and the control (n = 3) were aligned to the Tasmanian devil reference genome v7.0 (NCBI: GCA_000189315.1[49] using STAR v2.7.8a[50]. Alignments for each treatment were summarized into gene counts using featureCounts in the subread package v1.5.1[51].
Gene counts were used as input for differential expression analysis in R[52]. Genes with less than 50 counts across all samples were removed from the analysis, as these were unlikely to be biologically relevant and lacked sufficient statistical power. Firstly, the data was normalized by trimmed mean of M values (TMM) using edgeR v3.32.1[53] to account for any composition bias between libraries and to give an effective library size for downstream analysis. Multidimensional scaling (MDS) was used to check for variation between treatments using limma v3.36.0[54]. Expression levels were then normalized using upper-quartile normalization in EDAseq v2.24.0[55] to account for differences in distribution between lanes, such as sequencing depth. Differential expression analysis was performed using voom in the limma v3.36.0 package.
(§1) Over-representation analysis of Biological Processes was conducted in clusterProfiler v3.18.1[57]. Statistical significance was adjusted for multiple comparisons using the Benjamini–Hochberg method, and terms were considered significant when p-adj < 0.05. To remove general terms, gene sets larger than 200 were removed, and the simplify function was used to remove redundant GO terms. Further pathway analysis was conducted in IPA (Qiagen)[58], using mammal as the species type and nervous system for the tissue/cell type.

DFT1 1426 cells [2] = type: cell-based, Tasmanian devil (Sarcophilus harrisii); details: for decrease in cell viability compared to the growth control / incubation period required before exhibiting a similar level of toxicity to Saha-CATH5: 500 μg/mL, DFT1 1426 cells; for decrease in cell viability compared to the growth control: 36 h, alamarBlue, quadruplicate; for cytotoxic concentration (cell viability reduced by more than 50%): 18 h; for concentration toxic to DFT1 1426 cells: summary in the discussion
Experimental: The DFT1 cell line 1426, derived from a primary DFT1 tumour, was obtained from Menzies Institute for Medical Research, University of Tasmania. The cell line was maintained in RPMI 1640 media with 2 mM L-glutamine (Gibco) supplemented with 10% AmnioMax II (Gibco), 10% heat-inactivated foetal bovine serum (FBS) and 1% penicillin/streptomycin (Sigma-Aldrich), in T75 flasks (Nunc) at 35 °C 5% CO2. Cells were passaged using trypsin–EDTA (Sigma-Aldrich) when 90% confluent.
Toxicity of seven Tasmanian devil cathelicidins against DFT1 1426 cells was determined for twofold dilutions from 500 to 15.62 µg/mL, and four different timepoints (12, 18, 24 and 36 h). Confluent DFT1 1426 cells (passage 22) were re-suspended in RPMI 1640 with 10% FBS and 10% AmnioMax II at a concentration of 5 × 10^5 cells/mL, and 100μL seeded into each well of a sterile flat-bottom 96 well plate (Corning), with individual plates for each timepoint (12, 18, 24 and 36 h). All plates were incubated for 24 h at 35 °C 5% CO2 prior to the cytotoxicity test.
At 0 h, 100 μL of each peptide dilution was then added to each plate in quadruplicate for all timepoints (12, 18, 24 and 36 h), resulting in a final peptide concentrations of 500 μg/mL, 250 μg/mL, 125 μg/mL, 62.50 μg/mL, 31.25 μg/mL and 15.62 μg/mL. […] An untreated growth control of RPMI 1640, a positive control of dimethylsulfoxide (DMSO) (15%) and sterility control of RPMI 1640 only (no cells) were also included for each time point.
For the 12 h timepoint, 10% alamarBlue was immediately added to each well of the plate after addition of the peptide. For the remaining timepoints, plates were incubated for an additional 6, 12 or 24 h after addition of the peptides, then 10% alamarBlue added to each well. For all timepoints, after the addition of alamarBlue cells were incubated for a further 12 h, resulting in a total peptide incubation period of 12, 18, 24 and 36 h. Absorbance of alamarBlue for all timepoints was determined at 570 nm and 630 nm on a Biotek 800 TS microplate reader. Cell viability was calculated according to manufacturer’s instructions and expressed as a percentage of cell survival compared to the untreated growth control.
A one-sample, one-tailed t-test was used to test for significant difference in viability between treated cells and the negative growth control. A one sample, two-tailed t-test was also conducted to ensure there was no significant difference in viability between the negative growth control and the cells treated with the solvent only. Statistical analysis was conducted in R (R Development Core Team 2021).

human cell line A549 = details: cited from earlier work
Experimental: Here we aimed to identify cathelicidin candidates for future development as anti-DFTD therapeutics. Four Tasmanian devil cathelicidins (Saha-CATH3, 4, 5 and 6) were toxic to DFT1 1426 cells at high concentrations: Saha-CATH3 at concentrations ≥ 62.5 µg/mL; Saha-CATH4 at 500 µg/mL; Saha-CATH5 at concentrations ≥ 125 µg/mL and Saha-CATH6 at concentrations ≥ 250 µg/mL. Previous studies have shown that two of these peptides (Saha-CATH3 and 4) are non-toxic to human cell line A549[44]. The other two (Saha-CATH5 and 6) reduced cell viability at high concentrations (500 µg/mL), resulting in 42% and 5 ...

DFT1 1426 cells [3] = test: Ingenuity Pathway Analysis (canonical pathways) of DE genes in treated DFT1 1426 cells; type: cell-based, Tasmanian devil (Sarcophilus harrisii); details: DE genes of cells treated with 500 μg/mL for 10 h
Experimental: as §1

human red blood cells = details: cited from earlier work
Excerpt: Cathelicidins have been isolated from many vertebrate taxa[34]–[37]. However, they have undergone gene expansion in marsupials due to the need for additional protection of immunologically naïve young during development in the pouch. […] During development within the pouch, young are exposed to diverse microbial flora, some of which are pathogenic. This has likely encouraged the lineage-specific expansion of cathelicidins in marsupials, resulting in mult ...

Sequence	Fold change, gene IL1R1 (DFT1 1426 cells [1]; cytokine receptor, RNAseq)	Fold change, gene IL6R (DFT1 1426 cells [1]; cytokine receptor, RNAseq)	Fold change, gene IL6 (DFT1 1426 cells [1]; RNAseq)	Fold change, gene MYD88 (DFT1 1426 cells [1]; RNAseq)	percentage of DE genes (DFT1 1426 cells [1])	Fold change, gene RUNX1 (DFT1 1426 cells [1]; RNAseq)	decrease in cell viability compared to the growth control (DFT1 1426 cells [2])	incubation period required before exhibiting a similar level of toxicity to Saha-CATH5 (DFT1 1426 cells [2])	cytotoxic concentration (cell viability reduced by more than 50%) (DFT1 1426 cells [2])	concentration toxic to DFT1 1426 cells (DFT1 1426 cells [2])	IPA z-score, Th17 activation pathway (DFT1 1426 cells [3])	also measured
KRIRFFERIRDRLRDLGNRIKNRIRDFFS [Saha-CATH6]	2.29	1.70	11.14	1.78	15.56%	1.61	more than 50%	18 h	≥ 250 µg/mL	≥ 250 µg/mL	2.53	Fold change (FC), ATF3 (DFT1 1426 cells [1]; RNAseq): 5.02; Fold change (FC), CHOP (DDIT3) (DFT1 1426 cells [1]; RNAseq): 1.91; Fold change (FC), GADD34 (PPP1R15A) (DFT1 1426 cells [1]; RNAseq): 2.14; Fold change, gene IL21R (DFT1 1426 cells [1]; cytokine receptor, RNAseq): 1.58; cell viability (% of untreated growth control) (DFT1 1426 cells [2]; 500 µg/mL, after 18 h, mean of quadruplicate): 0%; cell survival of human cell line A549 (human cell line A549; 500 µg/mL): 59%; IPA z-score, EIF2 signaling (DFT1 1426 cells [3]): 4.352; concentration at which moderately haemolytic (human red blood cells; human red blood cells): above 250 μg/mL
KRMGIFHLFWAGLRKLGNLIKNKIQQGIENFLG [Saha-CATH3]	2.41	2.88	4.38	2.64	12.63%	2.71	more than 50%	18 h	62.5 to 250 µg/mL	≥ 62.5 µg/mL	3.317	Fold change, gene CCND3 (DFT1 1426 cells [1]; G1-S phase transition, RNAseq): 0.62; Fold change, gene CCNE1 (DFT1 1426 cells [1]; G1-S phase transition, RNAseq): 0.57; Fold change, gene CCNE2 (DFT1 1426 cells [1]; G1-S phase transition, RNAseq): 0.61; Fold change, gene E2F2 (DFT1 1426 cells [1]; cyclin transcription factor, RNAseq): 0.48; toxicity to human cell line A549 (in words) (human cell line A549): non-toxic; IPA z-score, Cyclins and Cell Cycle Regulation (DFT1 1426 cells [3]): -2.333; haemolysis of human red blood cells (in words) (human red blood cells): not haemolytic
